The values that follow come from patent publication US8703783B2, “Purinone derivatives as HM74A agonists” (Incyte Corporation, priority 2006, dated 2014).

For experiment [1] the following is noted: cited from earlier work.
A further experiment has as its system mature adipocytes. Put plainly: Adipocyte lipolysis assay. The experiment is classed as cell-based. As to conditions: glycerol in supernatant after overnight culture with IBMX (100 μM), relative to DMSO controls. On the procedure: Preadipocytes purchased from Zen Bio were plated at 8.7×10 ^4 cells/well in 96-well plates, differentiated for 14 days and mature adipocytes assayed during days 15 through 21. Adipocyte maturation is assessed by the presence of rounded cells with large lipid droplets in the cytoplasm. Following maturation, cells were washed and incubated overnight with IBMX (100 μM) and various concentrations of compound diluted in assay buffer containing a final DMSO concentration of 0.1%. After overnight culture, the glycerol concentration in the supernatants was determined with the Lipolysis Assay Kit purchased from Zen-Bio. Absorbance at 540 nm is directly proportional to the glycerol concentration in the sample. IC50 determinations were based on compound inhibition relative to DMSO controls.

The target in experiment [2] is T1, human HM74a (Homo sapiens, UniProt Q8TDS4). Put plainly: GTPγS recruitment assay. Type of experiment: biochemical. The arrangement: expressed in transfected cells; host or cells: HEK293 (transient transfection; membranes). As to conditions: membranes of HEK293 cells transfected with human HM74a and Gα0; 35S GTPγS. On the procedure: Membranes were prepared from HEK293 cells transiently transfected with human HM74a and Gα0 protein. Assays were performed in 384-well format in a volume of 50 μL per assay point. Serial dilutions of compounds were prepared in the assay buffer (20 mM HEPES pH. 7.4, 100 mM NaCl, 10 mM MgCl2, 10 mg/L saponin and 10 μM GDP) and mixed with membranes (2 μg per assay point) and ^35S GTPγS (Amersham, 0.3 nM) in the assay buffer. The mixtures were incubated at room temperature for 30 mM and wheat germ agglutinin SPA beads (Amersham) (0.2 mg per assay point) in the assay buffer were added. After […] incubation with agitation, plates were centrifuged at 1500 g for 5 mM and bound ^35S GTPγS was determined by counting on a TopCount scintillation counter. […] For example, the compound of Example 1 has an EC50 of 80 nM in this assay.
T1 sequence (Q8TDS4 whole entry): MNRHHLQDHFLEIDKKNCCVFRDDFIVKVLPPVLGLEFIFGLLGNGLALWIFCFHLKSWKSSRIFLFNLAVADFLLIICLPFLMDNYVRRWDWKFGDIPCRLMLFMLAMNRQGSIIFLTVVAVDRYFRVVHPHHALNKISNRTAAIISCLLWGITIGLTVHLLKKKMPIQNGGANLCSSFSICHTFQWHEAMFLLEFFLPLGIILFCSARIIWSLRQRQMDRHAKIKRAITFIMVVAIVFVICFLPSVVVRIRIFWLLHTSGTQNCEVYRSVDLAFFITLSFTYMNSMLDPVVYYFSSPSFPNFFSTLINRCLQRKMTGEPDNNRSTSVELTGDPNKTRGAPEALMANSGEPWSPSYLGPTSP

Experiment [3] addresses T1, human HM74a. Put plainly: cAMP assay. The experiment is classed as cell-based. To be noted: CHO cells stably transfected with human HM74a; 5 μM forskolin; inhibition relative to DMSO controls. The arrangement: expressed in transfected cells. On the procedure: CHO cells stably transfected with human HM74a were seeded at 7,500 cells/well in a 96-well plate in HAMS F12 medium with 10% FBS. The plate was incubated overnight at 37° C. and 5% CO2. The test compounds were prepared in a stimulation buffer containing 1×HANKS, 20 mM HEPES, 5 μM forskolin, and 0.25 mM IBMX. The media from the cell plate was removed before adding 30 μL of the test compounds. After 30 minute incubation at 37° C. and 5% CO2, the cAMP level was assayed using HitHunter cAMP XS assay kit (DiscoverX, CA). IC50 determinations were based on compound inhibition relative to DMSO controls.
In general terms: cAMP levels reflect the balance of adenylyl cyclase and phosphodiesterase activity.

Take `O=C1[C@H](CC[C@H](O)c2ccc(F)cc2)[C@@H](c2ccc(O)cc2)N1c1ccc(F)cc1` [Ezetimibe]: the “maximal LDL reductions” value in experiment [1] (co-formulated with a statin) was “exceed 60%”. In addition, in experiment [1] (monotherapy), the “lowers LDL” value is recorded as 20%.
Consider `O=C(O)c1cccnc1` [Nicotinic acid, nicotinic acid], for which, in experiment [1] (human, in vivo), the “lowering circulating plasma LDL” value is 16%, the lowering triglycerides is reported as 38% and the “raising HDL levels” value is on record as 20-30%.
`CCCCCn1c2nc(Br)[nH]c2c(=O)n2c(CCc3nc(Cc4ccncc4)no3)nnc12` [Example 77, 7-bromo-9-pentyl-3-{2-[3-(pyridine-4-ylmethyl)-1,2,4-oxadiazol-5-yl]ethyl}-6,9-dihydro-5H-[1,2,4]triazolo[4,3-a]purin-5-one] came in with an IC50 in the experiment on mature adipocytes of 0.037 µM.
The molecule `CCCCCn1c2nc(C(F)(F)F)[nH]c2c(=O)n2c(C)nnc12` [Example 1, 3-methyl-9-pentyl-7-(trifluoromethyl)-6,9-dihydro-5H-[1,2,4]triazolo[4,3-a]purin-5-one] showed an EC50 on human HM74a [2] of 0.08 µM. Also, the concentration for half-maximal inhibition (IC50) against human HM74a [3] amounted to 0.02 µM.

What is called IC50 is the concentration that inhibits the measured activity by half. Read a high IC50 as weaker potency in that assay. One may read the EC50 as the concentration needed to bring the measured effect to its halfway point.
